Data taken from ChEMBL document CHEMBL1157897, “A rapid oxime linker-based library approach to identification of bivalent inhibitors of the Yersinia pestis protein-tyrosine phosphatase, YopH” (Bioorg Med Chem Lett, 2010).

Biological target: Secreted effector protein (Yersinia pestis, UniProt O68720)
Assay: Inhibition of Yersinia pestis YopH after 15 mins by pNPP hydrolysis assay

Secreted effector protein, sequence (O68720 whole entry): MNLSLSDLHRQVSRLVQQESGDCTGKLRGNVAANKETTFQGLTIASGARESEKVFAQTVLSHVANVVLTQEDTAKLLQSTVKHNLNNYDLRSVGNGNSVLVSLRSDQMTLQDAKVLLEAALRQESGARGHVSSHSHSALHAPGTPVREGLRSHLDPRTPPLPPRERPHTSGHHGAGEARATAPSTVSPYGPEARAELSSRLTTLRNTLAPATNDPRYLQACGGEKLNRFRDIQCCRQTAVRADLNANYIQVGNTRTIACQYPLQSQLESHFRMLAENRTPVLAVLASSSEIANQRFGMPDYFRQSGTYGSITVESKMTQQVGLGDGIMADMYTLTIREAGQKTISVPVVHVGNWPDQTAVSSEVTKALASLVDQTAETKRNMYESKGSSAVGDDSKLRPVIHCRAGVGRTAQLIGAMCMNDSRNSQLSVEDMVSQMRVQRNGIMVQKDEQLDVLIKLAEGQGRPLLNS

Structure (SMILES): O=C(O)c1cc(/C=N/OCCCCCCCCCCO/N=C/c2ccc(OCc3ccccc3)cc2)ccc1O
- IC50: 2.4 µM
